PubChem BioAssay (NCI)
Values joined by “and” are separate entries in the source; they are usually repeats but may differ in a detail not shown here. Equal entries are not always repeated.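 Method: 48-hour compound exposure of cells in 96-well plates, five concentrations, linear interpolation of endpoints. GI50 marks 50% less growth. At the TGI there is no net growth.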

Legend:
Assay in all cases: DTP human tumour cell line panel, 48 h
[1] = system: OVCAR-3 ovarian
[2] = system: NCI-H23 lung
[3] = system: SN12C renal
[4] = system: RXF 393 renal
[5] = system: UACC-62 melanoma
[6] = system: IGROV1 ovarian
[7] = system: SK-MEL-28 melanoma
[8] = system: HL-60(TB) leukemia
[9] = system: ACHN renal
[10] = system: M14 melanoma

Compound | GI50 [1] | TGI [1] | GI50 [2] | TGI [2] | GI50 [3] | TGI [3] | GI50 [4] | TGI [4] | GI50 [5] | TGI [5] | GI50 [6] | TGI [6] | GI50 [7] | TGI [7] | GI50 [8] | TGI [8] | GI50 [9] | TGI [9] | GI50 [10] | TGI [10]
CCN(Cc1ccccc1OC)c1ccc(CO)c(Cl)c1 | 0.767 µM | 4.48 µM | 8.96 µM | 29.9 µM | 11.1 µM | 23.5 µM | 7.61 µM | 24.7 µM | 0.223 µM | 1.79 µM | 0.0502 µM | 0.337 µM | 10.3 µM | 24.8 µM | 11.8 µM | 34.9 µM | 14.1 µM | 27.4 µM | 12.4 µM | 25.5 µM
OCc1ccc(-c2nn(Cc3ccccc3)c3ccccc23)o1 | 1.35 µM and 1.71 µM | 9.8 µM and 13.4 µM | 19.2 µM and 20.9 µM | 58.8 µM and 50.8 µM | 15.9 µM and 15.1 µM | 35.5 µM and 33.7 µM | 7.94 µM and 14.8 µM | 30.7 µM and 38 µM | 0.52 µM and 3.41 µM | 16.4 µM and > 44.4 µM | 0.508 µM and 0.288 µM | 22.5 µM and > 93.1 µM | 16.9 µM and 15.7 µM | 36.5 µM and 47.5 µM | 15.6 µM and 19 µM | 40.5 µM and 58.3 µM | 19.8 µM and 16 µM | 91.9 µM and 39.8 µM | 21.1 µM and 29.2 µM | 45.6 µM and > 57.8 µM
CC(CNC(Cc1ccccc1)c1ccccc1)NC(Cc1ccccc1)c1ccccc1 (stereo not given) | 2.07 µM | 4.56 µM | 1.94 µM | 4.46 µM | 2.22 µM | 6.38 µM | 1.66 µM | 3.19 µM | 1.8 µM | 3.8 µM | 2.76 µM | 10.5 µM | 2.84 µM | 7.81 µM | 2 µM | 4.51 µM | 2.93 µM | 8.85 µM | 1.79 µM | 3.6 µM
Clc1nc(Cl)c2ncn(Cc3ccc(COc4cccc(OCc5ccc(Cn6cnc7c(Cl)nc(Cl)nc76)cc5)c4)cc3)c2n1 | 10.7 µM | 56.6 µM | 71.4 µM | > 100 µM | 92.4 µM | > 100 µM | > 100 µM | > 100 µM | 34.7 µM | > 100 µM | 69.4 µM | > 100 µM | 52.8 µM | > 100 µM | 13.5 µM | 34.3 µM | 45.4 µM | > 100 µM | 21.9 µM | 85.9 µM
N#C/C(=C\c1cccc(O)c1)C(N)=O | – | > 100 µM | – | > 100 µM | – | > 100 µM | – | > 100 µM | – | > 100 µM | – | > 100 µM | – | > 100 µM | – | 43.5 µM | – | > 100 µM | – | > 100 µM
CCCCCCCCCCCCCC(=O)CBr | – | 39.9 µM | – | 23 µM | – | 43.3 µM | – | 10.5 µM | – | 17.9 µM | – | 15.1 µM | – | 30.7 µM | – | 3.08 µM | – | 30.1 µM | – | 26.6 µM
CCCCCCCCCCCCCCCC(=O)OCC1OC(n2c(O)c(N=NC(N)=S)c3ccc([N+](=O)[O-])cc32)C(OC(C)=O)C1OC(C)=O (stereo not given) | – | > 100 µM | – | > 100 µM | – | > 100 µM | – | > 100 µM | – | > 100 µM | – | > 100 µM | – | > 100 µM | – | > 100 µM | – | > 100 µM | – | > 100 µM
COc1ccc2c(c1)OC(N(C(C)=O)C(C)=O)=C(C#N)C2c1ccc(F)cc1 (stereo not given) | 0.676 µM | 7.5 µM | 4.44 µM | > 100 µM | 6.48 µM | > 100 µM | 1.77 µM | 9.63 µM | 0.632 µM | > 100 µM | 2.82 µM | > 100 µM | 9.97 µM | > 100 µM | 0.496 µM | 2.53 µM | 4.18 µM | > 100 µM | 0.482 µM | > 100 µM
CC(=O)c1cc([N+](=O)[O-])ccc1OCC(=O)O | – | > 100 µM | – | > 100 µM | – | > 100 µM | – | > 100 µM | – | > 100 µM | – | > 100 µM | – | > 100 µM | – | > 100 µM | – | > 100 µM | – | > 100 µM
O=C(CN1CCN(c2ccccc2)CC1)N1CCc2c([nH]c3ccccc23)C1c1cccnc1 (stereo not given) | – | > 100 µM | – | > 85.3 µM | – | > 100 µM | – | 49.5 µM | – | > 100 µM | – | > 100 µM | – | > 100 µM | – | > 100 µM | – | > 100 µM | – | > 100 µM
O=C(O)c1cc(=O)c2[nH]c3ccccc3c2s1 | – | > 100 µM | – | > 100 µM | – | > 100 µM | – | > 100 µM | – | > 100 µM | – | > 100 µM | – | > 100 µM | – | > 100 µM | – | > 100 µM | – | > 100 µM
Clc1nc(Cl)c2c(ncn2C/C=C\Cn2cnc3c(Cl)nc(Cl)nc32)n1 | 1.68 µM | 3.04 µM | 1.72 µM | 3.93 µM | 1.8 µM | 6.14 µM | 0.351 µM | 0.906 µM | 1.83 µM | 4.09 µM | 0.269 µM | 0.771 µM | 1.66 µM | 3.02 µM | 1.85 µM | > 100 µM | 1.83 µM | 3.33 µM | 2.79 µM | 6.92 µM
CCC(CC)n1c(C)nc2c1C(=O)c1ccccc1C2=O | – | 75.7 µM | – | 54 µM | – | > 100 µM | – | > 100 µM | – | 36.2 µM | – | > 100 µM | – | > 100 µM | – | > 100 µM | – | > 100 µM | – | > 100 µM
CSc1nc2c(nc(N)n2C2OCC(O)C(O)C2O)c(=O)n1C (stereo not given) | – | > 100 µM | – | > 100 µM | – | > 100 µM | – | > 100 µM | – | > 100 µM | – | > 100 µM | – | > 100 µM | – | > 100 µM | – | > 100 µM | – | > 100 µM
Cc1ccc(NC(=O)/C(=N\Nc2ccc([N+](=O)[O-])cc2[N+](=O)[O-])C2C(=O)NC(=O)NC2=O)cc1 | – | > 100 µM | – | > 100 µM | – | > 100 µM | – | > 100 µM | – | 97.6 µM | – | > 100 µM | – | > 100 µM | – | > 100 µM | – | > 100 µM | – | > 100 µM
COc1c(N2CCN(CN3C(=O)C(=Nc4ccc(S(=O)(=O)Nc5ncccn5)cc4)c4ccccc43)C(C)C2)c(F)cc2c(=O)c(C(=O)O)cn(C3CC3)c12 (stereo not given) | > 50 µM | > 50 µM | 19.8 µM | > 50 µM | > 50 µM | > 50 µM | 42.4 µM | > 50 µM | 36.9 µM | > 50 µM | 19.2 µM | > 50 µM | > 50 µM | > 50 µM | > 50 µM | > 50 µM | > 50 µM | > 50 µM | > 50 µM | > 50 µM
